Each structure is given as a SMILES string.

The test system of this assay is WistarF/Han (WF) rats. The assay is described as follows: Social interaction (SI) test of anxiety, combined i.c.v. treatment (Example 3). It is filed as in vivo. Particulars: isoleucyl thiazolidine alone 5pmol-500nmol, Fig. 7. The protocol:
Animals. Male WistarF/Han (WF) rats (Central Animal Laboratory, Hannover Medical School, Hannover, Germany, see http://www.mh-hannover.de/institut/tierlabor/wf.htm for details), weighing 330-370g, were housed in a sound-proof, temperature controlled (24.0±0.5°C) room under specific pathogen free conditions with a 12/12h dark/light cycle (lights on at 07.00 with illumination level of 80 Lux). Food (Altromin lab chow pellets) and tap water were available ad libitum. Under ketamine/xylasine (100/5 mg/kg, i.p.) anesthesia, the rats were fixed in a Kopf stereotaxic frame and implanted with cannulae (Plastic One, Inc., Roanoke, VA, USA) above the lateral ventricle. […]
Animals were randomly divided into two sets of four experimental groups (n=5-6/group), which completed different consecutive SI test of anxiety. […] The time spent in active social interaction (SI-time), 1h and 12h food-intake were measured. […]
Social interaction (SI) test. […] Behavior was monitored using a video camera placed above the field inside the testing/isolation box. The SI behavior of both rats was recorded on-line from a monitor placed outside on top of the box. The following parameters were scored by an observer (HPN) unaware of the substrain of rats: duration of time spent in sniffing, following, crawling under and over other rats, but not passive body contact (resting, sleeping). […]

Turning to `CCC(C)C(N)C(=O)N1CCSC1` (stereo not shown) [isoleucyl thiazolidine], the “time spent in active social interaction (SI-time)” value was “"bell-shaped" dose-dependent anxiolytic-like effects”.
